From patent US10822587B2, “T cell balance gene expression, compositions of matters and methods of use thereof” (The Broad Institute, Inc., priority 2013, dated 2020)
“Also recorded” adds a separate entry of the source.

Legend:
[1] = biological target: T1, PROCR (Mus musculus, UniProt Q64695); test: Quantitative RT-PCR of pathogenic signature genes in Th17 cells differentiated in the presence of activated protein C; format: cell-based
T1 construct: endogenous in cells; host or cells: primary naïve CD4+ T cells (mouse spleen/lymph node) polarized to Th17 with TGF-β1 + IL-6
T1 sequence (Q64695 18-242): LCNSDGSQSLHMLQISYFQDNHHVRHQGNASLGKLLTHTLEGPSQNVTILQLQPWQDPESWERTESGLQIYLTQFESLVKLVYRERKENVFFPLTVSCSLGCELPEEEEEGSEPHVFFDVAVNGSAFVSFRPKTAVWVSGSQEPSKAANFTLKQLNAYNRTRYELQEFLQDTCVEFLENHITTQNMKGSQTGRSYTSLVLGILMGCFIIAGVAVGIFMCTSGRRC
From the text: FIG. 23A depicts quantitative RT-PCR analysis of mRNA expression of several pathogenic signature genes in Th17 cells differentiated with TGFβ1 and IL-6 in the presence of activated protein C (aPC) for 3 days in vitro. FIG. 23B depicts quantitative RT-PCR analysis of mRNA expression of several pathogenic signature genes in naïve CD4^+ T cells polarized under Th17 conditions, transduced with either GFP control retrovirus (Control RV) or PROCR-expressing retrovirus (PROCR RV) for 3 days. FIG. 23C depicts quantitative RT-PCR analysis of mRNA expression of several pathogenic signature genes in Th17 cells from EPCR δ/δmice and control mice differentiated with TGFβ1 and IL-6 for 3 days in vitro.
FIGS. 32A, 32B, 32C and 32D are a series of graphs depicting how PROCR and PD-1 expression affects Th17 pathogenicity. FIG. 32A depicts signature genes of pathogenic and non-pathogenic Th17 cells. Naïve CD4+ T cells were differentiated into non-pathogenic (TGFβ+IL-6) or pathogenic (TGFβ3+IL-6 or IL-β+IL-6) Th17 cells and PROCR expression was determined by quantitative PCR. FIG. 32B depicts how naïve WT or PROCRd/d CD4+ T cells were stimulated under Th17 polarizing conditions (TGFβ+IL-6) in the presence or absence of aPC. Quantitative expression of three pathogenic signature genes was determined on day 3. […] Mice were monitored for EAE. […]. […]

[2] = tested on: Th17 cells; test: IL-17 / IFN-γ production of Th17 cells differentiated with activated protein C (intracellular staining, ELISA); format: cell-based, mouse; conditions: aPC 300 nM, anti-CD3/anti-CD28, TGF-β+IL-6; flow cytometry day 3, ELISA day 3 and 5
Procedure: FIG. 20A depicts how naïve CD4+ T cells were differentiated into Th17 cells by anti-CD3/anti-CD28 stimulation in the presence of activated protein C (aPC, 300 nM), the ligand of PROCR. On day 3, cells were stimulated with PMA and Ionomycin for 4 hr, stained intracellularly for IFN-γ and IL-17 and analyzed by flow cytometry. FIG. 20B depicts IL-17 production from Th17 cells (TGF-β+IL-6) differentiated with or without activated protein C (aPC and Ctl, respectively) was assessed by ELISA on Day 3 and 5. FIG. 20C depicts how naïve CD4+ T cells were polarized under Th17 conditions (TGF-β+IL-6), transduced with either GFP control retrovirus (Ctl RV) or PROCR-expressing retrovirus (PROCR RV). Intracellular expression of IFN-γ and IL-17 in GFP+ cells were assessed by flow cytometry. FIG. 20D depicts how naïve CD4+ T cells from EPCR δ/δmice and control mice were polarized under Th17 conditions with TGF-β1 and IL-6. Intracellular expression of IFN-γ and IL-17 were assessed by flow cytometry. […]
Naïve T cells from knockout mice and their wild type controls were cultured as described above, their supernatants were collected after 72 h, and cytokine concentrations were determined by ELISA (antibodies for IL-17 and IL-10 from BD Bioscience) or by cytometric bead array for the indicated cytokines (BD Bioscience), according to the manufacturers' instructions (FIG. 5, FIG. 16).

activated protein C
mRNA expression of pathogenic signature genes ([1]; Th17 cells differentiated with TGFβ1 and IL-6 in the presence of aPC for 3 days in vitro): impairs some pathogenic signature genes in Th17 cells; also recorded: induces a downregulation of the pathogenic signature genes IL-3, CXCL3, CCL4 and Pdp; also recorded: decreased the expression of some of the genes identified as a part of the pathogenic signature of Th17 cells | expression of non-pathogenic signature genes ([1]; Th17 polarizing conditions (TGFβ+IL-6) in the presence or absence of aPC, day 3): induces some non-pathogenic signature genes | cytokine production (IL-17, IFN-γ) from Th17 cells [2]: not essential for cytokine production from Th17 cells
